Laboratory results from patent US11357779B2 (G1 Therapeutics, Inc., priority 2018, dated 2022).
“Also recorded” adds a separate entry of the source.

Key:
[1] = Apparent volume of distribution (Vd/F); assay type: in vivo; details: human, plasma, oral; 200 mg QD of compound II
Method: “Vd/F” (Liters) as used herein means the theoretical volume that would be necessary to contain the total amount of an administered drug at the same concentration that it is observed in the blood plasma. It is generally defined as the distribution of a medication between plasma and the rest of the body after oral or parenteral dosing. “Vd/F” as used herein is calculated by using the terminal elimination rate constant, which is derived mathematically from the concentration vs time curve to extrapolate a value of plasma concentration at time zero. Volume of distribution for oral drugs is normally expressed as Vd/F or Vz/F. The skilled artisan is familiar with calculating Vd/F or Vz/F.
The apparent volume of distribution (Vd/F) was calculated from the terminal rate constant (ke) derived from the plasma concentration-versus-time data provided for Compound I in Example 1 when dosed with 200 mg QD of Form B of Compound II.

[2] = Pharmacokinetics of Compound I in healthy volunteers after a single dose of Form B of Compound II; assay type: in vivo, human; details: for AUC(0-inf) / Cmax / Tmax / half-life / Vd/F: human, oral; for Vd/F: read-out: Vz/F
Method: Table 84 provides the pharmacokinetic parameters of Compound I upon administration of a single dose of Form B of Compound II (48, 100, 200, 300, 400, or 600 mg) in healthy volunteers. Blood samples for analysis of Compound I were collected pre-dose and 0.25, 0.5, 1, 1.5, 2, 3, 4, 6, 8, 12, 24, 36, 48, 72, and 96 hours post-dose.

ME-016 tumor = assay: Murine BRAFmut melanoma PDX model, tumor growth and survival; assay type: in vivo; details: ME-016 tumor-containing mice; Compound I 100 mg/kg, dabrafenib 25 mg/kg, trametinib 1 mg/kg
Method: Mice containing a ME-016 tumor were treated with vehicle, Compound I (100 mg/kg), dabrafenib (25 mg/kg), trametinib (1 mg/kg), Compound I+dabrafenib, Compound I+trametinib, dabrafenib+trametinib, and Compound I+dabrafenib+trametinib.

BT474 tumor = assay: Murine HER2+ ER+ CBX model, tumor growth and survival; assay type: in vivo; details: BT474 tumor-containing mice; Compound I 50 mg/kg by mouth once a day for 56 days
Method: Mice containing a BT474 tumor were treated with vehicle, Compound I (50 mg/kg by mouth once a day for 56 days), lapatinib+trastuzumab, or Compound I+lapatinib+trastuzumab.

[3] = Crystallization and slurry experiments, morphic forms of Compound II (XRPD, characterization); assay type: physicochemical; details: for Time point (1 day) XRPD: Stirring at RT
Method: Eleven unique XRPD patterns (Form A-Form K) of Compound II were obtained from crystallization and slurry experiments using various solvents.
Forms A, B, and D were evaluated as solid state forms.

[4] = TG and TG-IR analysis of Form B; assay type: physicochemical
Method: The TG analyses were performed using a TA Instrument Q5000 thermogravimetric analyzer. Temperature calibration was performed using nickel and Alumel. The sample was placed in a platinum pan and inserted into the TG furnace. The furnace was heated under a nitrogen purge to 350° C. at a rate of 10° C./min.
Thermogravimetric infrared (TG-IR) analysis was performed on a TA Instruments Q5000 IR thermogravimetric (TG) analyzer interfaced to a Magna-IR 560@ Fourier transform infrared (FT-IR) spectrophotometer (Thermo Nicolet) equipped with an Ever-Glo mid/far IR source, a potassium bromide (KBr) beamsplitter, and a mercury cadmium telluride (MCT-A) detector. The FT-IR wavelength verification was performed using polystyrene, and the TG calibration standards were nickel and Alumel™. The sample was placed in a platinum sample pan and the pan was inserted into the TG furnace. The TG instrument was started first, immediately followed by the FT-IR instrument. The TG instrument was operated under a flow of helium at 90 and 10 cc/minute for the purge and balance, respectively. The furnace was heated under helium at a rate of 20° C./minute to a final temperature of approximately 140° C. IR spectra were collected approximately every 32 seconds for approximately 7.5 minutes. Each IR spectrum represents 32 co-added scans collected at a spectral resolution of 4 cm-1. Volatiles were identified from a search of the High Resolution Nicolet Vapor Phase spectral library.
A TG-IR experiment was carried out on pure Form B (Sample 11 from the small-scale slurry experiments) at […] in an effort to investigate the stability of Form B at elevated temperature by monitoring potential release of hydrogen chloride.

[5] = Stability study under thermal stress, 60° C. for 7 days; assay type: physicochemical
Method: Forms A, B, and D were stored in an oven maintained at 60° C. for 7 days.

[6] = blood, single 100 mg dose of Form B of Compound II
[7] = blood, single 200 mg dose of Form B of Compound II
[8] = blood, single 300 mg dose of Form B of Compound II
[9] = plasma, single 48 mg dose of Form B of Compound II
[10] = plasma, single 400 mg dose of Form B of Compound II
[11] = plasma, single 600 mg dose of Form B of Compound II

## CC(C)N1CCN(c2ccc(Nc3ncc4cc5n(c4n3)C3(CCCCC3)CNC5=O)nc2)CC1 [Compound I, 2′-((5-(4-isopropylpiperazin-1-yl)pyridin-2-yl)amino)-7′,8′-dihydro-6′H-spiro[cyclohexane-1,9′-pyrazino[1′,2′:1,5]pyrrolo[2,3-d]pyrimidin]-6′-one]
[1]
  Vd/F: 15200 L
[2]; [6]
  AUC(0-inf): 60.2 ng·h/mL
  Cmax: 9.23 ng/mL
  Tmax: 2 h
  half-life: 283 min
  Vd/F: 11300 L
[2]; [7]
  AUC(0-inf): 275 ng·h/mL
  Cmax: 29.3 ng/mL
  Tmax: 3 h
  half-life: 828 min
  Vd/F: 14500 L
[2]; [8]
  AUC(0-inf): 349 ng·h/mL
  Cmax: 27 ng/mL
  Tmax: 3.5 h
  half-life: 924 min
  Vd/F: 19100 L
[2]; blood, single 400 mg dose of Form B of Compound II
  Tmax: 5 h
[2]; [9]
  AUC(0-inf): 20.4 ng·h/mL
  Cmax: 3.65 ng/mL
  Tmax: 2 h
  half-life: 184 min
  Vd/F: 10400 L
[2]; [10]
  AUC(0-inf): 432 ng·h/mL
  Cmax: 26.3 ng/mL
  half-life: 894 min
  Vd/F: 19900 L
[2]; [11]
  AUC(0-inf): 886 ng·h/mL
  Cmax: 59 ng/mL
  Tmax: 6 h
  half-life: 1030 min
  Vd/F: 16800 L
[2]; single 48 mg dose of Form B of Compound II
  CL/F: 2354 L/h
[2]; single 100 mg dose of Form B of Compound II
  CL/F: 1660 L/h
[2]; single 200 mg dose of Form B of Compound II
  CL/F: 727 L/h
[2]; single 300 mg dose of Form B of Compound II
  CL/F: 861 L/h
[2]; single 400 mg dose of Form B of Compound II
  CL/F: 926 L/h
[2]; single 600 mg dose of Form B of Compound II
  CL/F: 677 L/h
ME-016 tumor
  Median OS: 42.5 days
BT474 tumor
  Median OS: 25 days

## CC(C)N1CCN(c2ccc(Nc3ncc4cc5n(c4n3)C3(CCCCC3)CNC5=O)nc2)CC1 [Compound II, 2′-((5-(4-isopropylpiperazin-1-yl)pyridin-2-yl)amino)-7′,8′-dihydro-6′H-spiro[cyclohexane-1,9′-pyrazino[1′,2′:1,5]pyrrolo[2,3-d]pyrimidin]-6′-one]
[3]; MeOH/0.5 mL, 60.0° C., Fast Cooling (4° C.), anti solvent EtOAc/0.2 mL, ppt/filter
  XRPD: Weak crystalline
[3]; MeOH/0.5 mL, 60.0° C., Fast Cooling (4° C.), anti solvent n-BuOH/5.0 mL, ppt/filter
  XRPD: Weak crystalline
[3]; MeOH/0.5 mL, 60.0° C., Fast Cooling (4° C.), anti solvent n-PrOH/5.0 mL, ppt/filter
  XRPD: Weak crystalline
[3]; MeOH/0.5 mL, 60.0° C., Slow Cooling (20° C./hr), anti solvent Acetone/0.5 mL, ppt/filter
  XRPD: Weak crystalline
[3]; MeOH/0.5 mL, 60.0° C., Slow Cooling (20° C./hr), anti solvent EtOH/5.0 mL, ppt/filter
  XRPD: Weak crystalline
[3]; MeOH/0.5 mL, 60.0° C., Slow Cooling (20° C./hr), anti solvent MIBK/0.1 mL, ppt/filter (first listing)
  XRPD: Weak crystalline
[3]; MeOH/0.5 mL, 60.0° C., Slow Cooling (20° C./hr), anti solvent MeCN/2.5 mL, ppt/filter
  XRPD: Weak crystalline
[3]; MeOH/0.5 mL, 60.0° C., Slow Cooling (20° C./hr), anti solvent THF/0.5 mL, ppt/filter
  XRPD: Weak crystalline
[3]; MeOH/0.5 mL, 60.0° C., Slow Cooling (20° C./hr), anti solvent Toluene/1.5 mL, ppt/filter (second listing)
  XRPD: Weak crystalline
[3]; MeOH/0.5 mL, 60.0° C., Slow Cooling (20° C./hr), anti solvent n-BuOH/5.0 mL, ppt/filter
  XRPD: Weak crystalline
[3]; MeOH/0.5 mL, 60.0° C., Slow Cooling (20° C./hr), anti solvent n-PrOH/5.0 mL, ppt/filter
  XRPD: Weak crystalline
[3]; Water/0.5 mL, 60.0° C., Fast Cooling (4° C.), anti solvent EtOH/5.0 mL, Clear/Evap.
  XRPD: Weak crystalline
[3]; Water/0.5 mL, 60.0° C., Fast Cooling (4° C.), anti solvent MeCN/5.0 mL, ppt/filter
  XRPD: Weak crystalline
[3]; Water/0.5 mL, 60.0° C., Fast Cooling (4° C.), anti solvent THF/3.0 mL, ppt/filter
  XRPD: Weak crystalline
[3]; Water/0.5 mL, 60.0° C., Fast Cooling (4° C.), anti solvent n-PrOH/5.0 mL, Clear/Evap.
  XRPD: Weak crystalline
[3]; Water/0.5 mL, 60.0° C., Slow Cooling (20° C./hr), anti solvent EtOH/5.0 mL, Clear/Evap.
  XRPD: Weak crystalline
[3]; single solvent crystallization: 1-BuOH 4.0 mL, 60° C., Fast Cooling (4° C.), ppt/filter
  XRPD: Weak
[3]; single solvent crystallization: 1-PrOH 4.0 mL, 60° C., Fast Cooling (4° C.), ppt/filter
  XRPD: Weak
[3]; single solvent crystallization: 1-PrOH 4.0 mL, 60° C., Slow (20° C./hr), ppt/filter
  XRPD: Weak
[3]; single solvent crystallization: MeOH 0.5 mL, 60° C., Fast Cooling (4° C.), ppt/filter
  XRPD: Weak
[3]; single solvent crystallization: Water 2.0 mL, 60° C., Fast Cooling (4° C.), Turbid/Evap.
  XRPD: Weak
[3]; single solvent crystallization: Water 2.0 mL, 60° C., Slow (20° C./hr), Turbid/Evap.
  XRPD: Weak
[3]; slurry in 2-MeTHF 1.0 mL
  Time point (1 day) XRPD: Weak
[3]; slurry in IPAc 1.0 mL
  Time point (1 day) XRPD: A with extra
[3]; slurry in MEK 1.0 mL
  Time point (1 day) XRPD: Weak
[3]; slurry in THF 1.0 mL
  Time point (1 day) XRPD: Weak
[4]; at 26-120° C., 125 mg/mL Slurry, 30° C., 43 h VF, washed, Air-dried for 3.5 h
  TGA weight loss: 10% weight loss at 26-
[4]; at 26-120° C., Vacuum drying, 22° C., 0.5 h, 15 in Hg, 22° C. 1.5 h, 27-28 in Hg
  TGA weight loss: 9.9% weight loss at 26-
[4]; at 31-120° C., Vacuum drying, 22° C., 2.0 h, 27 in Hg
  TGA weight loss: 7.5% weight loss at 31-

## CC(C)N1CCN(c2ccc(Nc3ncc4cc5n(c4n3)C3(CCCCC3)CNC5=O)nc2)CC1 [Form B]
[5]
  XRPD pattern after thermal stress: stable; also recorded: No change in the XRPD pattern; also recorded: remained unchanged
